Data taken from US20160355530A1, “HEPATITIS C INHIBITORS AND USES THEREOF” (AbbVie Inc., priority 2010, published 2016).
Like-named read-outs stand apart in the source and are kept apart here.

Experiments:
[1] = test system: chimeric replicon with genotype 2b NS5B; assay: microbe, parasite or virus in culture; type: cell-based, HCV genotype 2b; details: Hepatitis C virus, read-out: 2b chimera 5% FBS EC50
[2] = test system: HCV 1a-H77 subgenomic replicon; assay: microbe, parasite or virus in culture; type: cell-based, HCV genotype 1a; details: Hepatitis C virus, stable replicon
[3] = test system: HCV 1a-H77 C316Y mutant subgenomic replicon; assay: Stable replicon cell culture assay (luciferase), 1a-H77-C316Y mutant; type: cell-based, HCV genotype 1a; details: for EC50: Hepatitis C virus, read-out: Stable Replicon 1a H77-C316Y 5% FBS EC50; for Stable Replicon Fold Resistance C316Y/1a: ratio of stable replicon EC50s, C316Y / 1a H77
[4] = target: T1, HCV NS5B polymerase 1b Rice (Hepatitis C virus genotype 1b, UniProt Q9WMX2); assay: HCV NS5B polymerase enzymatic inhibition assay, strain 1b Rice; type: biochemical, HCV genotype 1b; details: enzyme
T1 construct: six-histidine tag; made in house; host or cells: E. coli
Method: Purified HCV NS5B polymerase enzymes were used for polymerase inhibition assays. All recombinant HCV polymerases contained the first 570 amino acids of the 591 amino acid native protein sequence and a six-histidine tag at the N-terminus or C-terminus to facilitate purification by affinity chromatography. The DNA nucleotide sequence for the HCV polymerase 1b BK strain was codon optimized for expression in E. coli. A synthetic gene was prepared from a series of overlapping oligonucleotides that were filled in using a DNA polymerase and amplified by PCR. The patient isolate HCV polymerases were cloned by RT-PCR methods using HCV RNA extracted from the serum of infected subjects obtained from ProMedDx and BioCollections (genotypes 2a, 2b, 3a, and 4a). Laboratory strains were cloned from plasmid DNA (1a-H77 or 1a-H77-C316Y) or from existing replicon cells (1b Rice). In all cases the amplified DNA was cloned into a protein expression vector (typically a pET vector from Novagen) and then multiple clones were sequenced to identify one whose NS5B sequence agreed with the population sequence. This sequence-confirmed clone was then transfected into E. coli for protein expression and purification. E. coli cultures were grown to a maximum optical density (OD) of 2-3 and then induced with 0.4 mM isopropyl beta-D-thiogalactopyranoside (IPTG) and grown for 20 hours at 20° C.
Proteins were purified using nickel affinity chromatography, and additional column steps were added including, ion exchange, size exclusion, hydrophobic ion, and poly-U affinity chromatography, as needed, depending on the sample being purified. The template RNA used in the polymerase enzymatic assay was a 2.1 kb construct that corresponds to the 3′-end of an HCV genotype 1b negative strand RNA.
The reaction was initiated by the addition of 20 μM CTP, 20 μM ATP, 0.284 μM (0.5 μCi) of 5,6-[^3H] UTP, 5 nM template RNA and 0.1 U/μL RNase inhibitor (RNasin, Promega), and allowed to proceed for three hours at 30° C. The final reaction volume was 50 μL. The reaction was terminated by the addition of 50 uL of 4 mM spermine in 10 mM Tris-HCl, pH 7.5, 1 mM EDTA. The quenched reaction was allowed to incubate for at least 15 minutes at room temperature, and then the precipitated RNA was captured by filtration through a glass fiber filter (GF/B, Millipore) in a 96 well format. The filter plate was washed five times with 200 μL of 2 mM spermine, 10 mM Tris-HCl, pH 8.0, 1 mM EDTA, and two times with ethanol. After drying thoroughly in air, 30 μL of Microscint-20 scintillation cocktail (Perkin Elmer) was added to each well, and the retained cpm were determined by scintillation counting. IC50 values were determined by nonlinear regression.
% Inhibition=100*[[I]/([I]+[IC50])] equation 1
V=kcat[S]/2(Km+[S])*(sqrt((IC50+I−E)̂2+(4*IC50*E))−(IC50+I−E)) equation 2

[5] = test system: chimeric replicon with genotype 4a NS5B; assay: microbe, parasite or virus in culture; type: cell-based, HCV genotype 4a; details: Hepatitis C virus, read-out: 4a chimera 5% FBS EC50
[6] = test system: HCV 1a-H77 transient subgenomic replicon in Huh-7 derived cell line; assay: microbe, parasite or virus in culture; type: cell-based, HCV genotype 1a; details: Hepatitis C virus, Huh-7; transient replicon, 5% FBS; read-out: Transient Replicon 1a H77 5% FBS EC50
Outline: (§1)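 Subgenomic replicon RNA (no Neo gene) electroporated into Huh-7-derived cells, plated at 5×10^3 cells/well; a 4 h plate gauged transfection efficiency. Cells exposed to 3-fold compound dilutions (0.5% DMSO) for 4 days at 37° C, then lysed for luciferase readout; EC50 calculated.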

[7] = test system: HCV 1a-H77-C316Y transient subgenomic replicon in Huh-7 derived cell line; assay: microbe, parasite or virus in culture; type: cell-based, HCV genotype 1a; details: for EC50: Hepatitis C virus, Huh-7, read-out: Transient Replicon 1a H77-C316Y 5% FBS EC50; for Transient Replicon Fold Resistance C316Y/1a: ratio of transient replicon EC50s, C316Y / 1a H77
Outline: as §1

[8] = test system: chimeric replicon with genotype 3a NS5B; assay: microbe, parasite or virus in culture; type: cell-based, HCV genotype 3a; details: Hepatitis C virus, read-out: 3a chimera 5% FBS EC50
[9] = target: T2, HCV NS5B polymerase 1a-H77-C316Y (Hepatitis C virus genotype 1a, UniProt P27958, C2736Y); assay: biochemical; set-up: species or system HCV genotype 1a
T2 construct: six-histidine tag; made in house; host or cells: E. coli
T2 sequence (P27958 2421-2990 C2736Y): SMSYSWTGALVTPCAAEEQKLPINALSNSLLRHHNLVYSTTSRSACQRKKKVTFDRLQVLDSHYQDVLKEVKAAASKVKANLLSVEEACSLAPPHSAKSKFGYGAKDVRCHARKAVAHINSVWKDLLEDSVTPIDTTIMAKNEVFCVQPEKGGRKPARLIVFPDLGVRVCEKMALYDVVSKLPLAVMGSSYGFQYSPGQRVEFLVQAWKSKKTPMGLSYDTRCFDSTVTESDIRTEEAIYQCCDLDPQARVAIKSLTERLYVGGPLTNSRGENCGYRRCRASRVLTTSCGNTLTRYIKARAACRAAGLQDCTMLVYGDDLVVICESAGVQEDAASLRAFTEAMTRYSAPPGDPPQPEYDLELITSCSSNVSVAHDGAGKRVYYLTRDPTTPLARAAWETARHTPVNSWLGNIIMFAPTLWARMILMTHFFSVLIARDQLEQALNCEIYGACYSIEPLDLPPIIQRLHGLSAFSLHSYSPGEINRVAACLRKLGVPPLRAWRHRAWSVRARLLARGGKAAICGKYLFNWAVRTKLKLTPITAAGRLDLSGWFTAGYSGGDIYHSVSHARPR
Outline: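 E. coli-expressed NS5B (residues 1-570, His-tagged) transcribed a 2.1 kb HCV 1b negative-strand 3′-end RNA template (5 nM) with 20 μM CTP, 20 μM ATP and 0.284 μM [3H]UTP for 3 h at 30° C. Spermine-precipitated RNA was filter-captured and counted by scintillation; IC50 from nonlinear regression.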

[10] = test system: chimeric replicon with 2a-J6CF-derived NS5B; assay: microbe, parasite or virus in culture; type: cell-based, HCV genotype 2a; details: Hepatitis C virus, read-out: 2a chimera 5% FBS EC50
[11] = 5% FBS, absence of human plasma, read-out: Stable Replicon 1a H77 5% FBS EC50
[12] = strain 1a H77, 5% FBS + 40% human plasma, read-out: 1a H77 5% FBS + 40% Human Plasma EC50
[13] = strain 1a H77, 5% FBS, no human plasma, read-out: 1a H77 5% FBS EC50
[14] = strain 1a H77, 5% FBS, read-out: 1a H77 5% FBS EC50

CS(=O)(=O)N(CCO)c1cc2oc(-c3ccc(F)cc3)c(-c3ncc[nH]3)c2cc1C1CC1 [Example 109, N-[5-cyclopropyl-2-(4-fluorophenyl)-3-(1H-imidazol-2-yl)-1-benzofuran-6-yl]-N-(2-hydroxyethyl)methanesulfonamide]
EC50 [1]: 120 nM
EC50 [2, 11]: 19.8 nM
EC50 [2, 12]: 420 nM
EC50 [2, 13]: 19.8 nM
EC50 [2, 14]: 19.8 nM
EC50 [3]: 467 nM
Stable Replicon Fold Resistance C316Y/1a [3]: 23.6 fold
IC50 [4]: 16.9 nM
EC50 [5]: 166 nM
EC50 [6]: 38 nM
EC50 [7]: 1300 nM
Transient Replicon Fold Resistance C316Y/1a [7]: 34 fold
EC50 [8]: 6.8 nM
IC50 [9]: 536 nM
EC50 [10]: 115 nM

CS(=O)(=O)N(CCO)c1cc2oc(-c3ccc(F)cc3)c(C3=NOCCN3)c2cc1C1CC1 [Example 136, N-[5-cyclopropyl-3-(5,6-dihydro-4H-1,2,4-oxadiazin-3-yl)-2-(4-fluorophenyl)-1-benzofuran-6-yl]-N-(2-hydroxyethyl)methanesulfonamide]
EC50 [1]: 426 nM
EC50 [2, 11]: 26.6 nM
EC50 [2, 12]: 347 nM
EC50 [2, 13]: 26.6 nM
EC50 [2, 14]: 26.6 nM
EC50 [3]: 561 nM
Stable Replicon Fold Resistance C316Y/1a [3]: 42.0 fold
IC50 [4]: 57 nM
EC50 [5]: 291 nM
EC50 [6]: 32.4 nM
EC50 [7]: 679 nM
Transient Replicon Fold Resistance C316Y/1a [7]: 21 fold
EC50 [8]: 42 nM
IC50 [9]: 256 nM
EC50 [10]: 204 nM

CCCC/C=C/c1ccc(-c2oc3cc(N(CCCCS(C)(=O)=O)S(C)(=O)=O)c(C4CC4)cc3c2-c2ncc[nH]2)cc1 [Example 168, N-[5-cyclopropyl-2-{4-[(1E)-hex-1-en-1-yl]phenyl}-3-(1H-imidazol-2-yl)-1-benzofuran-6-yl]-N-[4-(methylsulfonyl)butyl]methanesulfonamide]
EC50 [1]: 13.3 nM
EC50 [2, 11]: 1.8 nM
EC50 [2, 12]: 18.4 nM
EC50 [2, 13]: 1.8 nM
EC50 [2, 14]: 1.8 nM
EC50 [3]: 17.6 nM
Stable Replicon Fold Resistance C316Y/1a [3]: 9.72 fold
IC50 [4]: 4.9 nM
EC50 [5]: 14.4 nM
EC50 [6]: 0.6 nM
EC50 [7]: 14.4 nM
Transient Replicon Fold Resistance C316Y/1a [7]: 24 fold
EC50 [8]: 12.7 nM
IC50 [9]: 8.5 nM
EC50 [10]: 6 nM

CS(=O)(=O)CCCCN(c1cc2oc(-c3ccc(Nc4ccccc4)cc3)c(-c3ncc[nH]3)c2cc1C1CC1)S(C)(=O)=O [Example 169, N-[2-(4-anilinophenyl)-5-cyclopropyl-3-(1H-imidazol-2-yl)-1-benzofuran-6-yl]-N-[4-(methylsulfonyl)butyl]methanesulfonamide]
EC50 [1]: 12.3 nM
EC50 [2, 11]: 2.1 nM
EC50 [2, 12]: 14.8 nM
EC50 [2, 13]: 2.1 nM
EC50 [2, 14]: 2.14 nM
EC50 [3]: 11.4 nM
Stable Replicon Fold Resistance C316Y/1a [3]: 5.33 fold
IC50 [4]: 9.4 nM
EC50 [5]: 4.3 nM
EC50 [6]: 0.6 nM
EC50 [7]: 4.1 nM
Transient Replicon Fold Resistance C316Y/1a [7]: 6 fold
EC50 [8]: 15 nM
IC50 [9]: 19.8 nM
EC50 [10]: 16.9 nM
